The results in this text go back to patent publication US9975888B2, “Aryl linked imidazole and triazole derivatives and methods of use thereof for improving the pharmacokinetics of a drug” (MERCK SHARP & DOHME CORP., priority 2013, dated 2018).

Where two headings read alike, the source gives them in different places. Some results are limits rather than exact numbers.

Assay type in all cases: biochemical
The target of one assay is T1, CYP2C19 (Homo sapiens, UniProt P33261).
T1 construct: 0.1 mg/mL protein human liver microsomes (BD Gentest); tissue BD Gentest; host or cells: human liver microsomes
T1 sequence (P33261 whole entry): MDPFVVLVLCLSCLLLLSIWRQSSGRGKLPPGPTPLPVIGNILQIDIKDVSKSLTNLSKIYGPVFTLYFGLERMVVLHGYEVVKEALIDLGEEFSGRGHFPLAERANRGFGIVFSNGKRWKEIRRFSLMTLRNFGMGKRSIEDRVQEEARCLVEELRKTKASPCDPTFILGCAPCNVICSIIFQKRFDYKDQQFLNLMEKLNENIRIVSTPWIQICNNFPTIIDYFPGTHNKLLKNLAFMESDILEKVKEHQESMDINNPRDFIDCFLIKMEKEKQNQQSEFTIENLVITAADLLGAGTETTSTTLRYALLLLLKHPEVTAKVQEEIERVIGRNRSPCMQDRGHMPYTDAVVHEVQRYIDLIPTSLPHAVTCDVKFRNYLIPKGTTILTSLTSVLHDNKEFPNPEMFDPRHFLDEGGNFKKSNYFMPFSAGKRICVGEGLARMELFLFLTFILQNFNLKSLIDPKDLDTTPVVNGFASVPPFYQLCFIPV
Kind of assay: Cocktail assay for CYPs, mephenytoin 4′-hydroxylation (CYP2C19), human liver microsomes. The conditions noted are these: 0.1 mg/mL human liver microsomes, 10 min at 37° C. Here is the method:
(§1) Determination of IC50 in a Cocktail Assay for CYPs 1A2, 2C9, 2C19, 2D6 and 3A4:
(§2) This assay was performed in a standard 96-well plate design. […] The incubation substrate mix contains 10 μM phenacetin (1A2), 5 μM diclofenac (2C9), 30 μM mephenytoin (2C19), 5 μM dextromethorphan (2D6) and 2 μM midazolam (3A4), 0.1 mg/mL protein human liver microsomes (BD Gentest), 1 mM NAPDH, 3.3 mM MgCl2 and 100 mM potassium phosphate buffer (pH 7.4). The production of the metabolite of each probe substrate was determined after incubation for 10 min at 37° C. Quantitation of the metabolite peak area ratio against an internal standard (tolbutamide) was determined by LC/MS/MS analysis following acetonitrile treatment of the incubations.
(§3) Samples were analyzed in the MRM mode with a SCIEX API-4000 mass spectrometer (Applied Biosystems, Foster City, Calif.), with a Shimadzu LC-20 AD pump (Shimadzu corporation, Kyoto, JP) and a CTC PAL autosampler (Agilent Technologies, Switzerland). A Phenomenex, Luna, […], 100 A, 2.00×30 mm HPLC column was used for the separation. The mobile phases were: (A) 0.1% formic acid in water and (B) 0.1% formic acid in acetonitrile. The binary gradient was as follows.
(§4) The peak area ratio of the analyte to the internal standard was used to quantify the metabolite. The values of peak area ratios in the presence of test compound were compared to those of maximum or minimum controls and were expressed as % inhibition by interpolating between the maximum and minimum peak area ratios. Incubations with no inhibitor were defined as the maxima. The following equation was used to calculate the % inhibition: [1−[(X−Low control)/(High control−Low control)]]*100 For the IC50 calculation, SigmaPlot was used to plot the mean % inhibition versus the test compound concentrations and for non-linear regression analysis of the data. Depending on the range of data points defining the inhibition curve, the data may have been fit to the 4-parameter logistic equation.

For another assay, the target named is T2, CYP2C9 (Homo sapiens, UniProt P11712).
T2 construct: 0.1 mg/mL protein human liver microsomes (BD Gentest); tissue BD Gentest; host or cells: human liver microsomes
T2 sequence (P11712 whole entry): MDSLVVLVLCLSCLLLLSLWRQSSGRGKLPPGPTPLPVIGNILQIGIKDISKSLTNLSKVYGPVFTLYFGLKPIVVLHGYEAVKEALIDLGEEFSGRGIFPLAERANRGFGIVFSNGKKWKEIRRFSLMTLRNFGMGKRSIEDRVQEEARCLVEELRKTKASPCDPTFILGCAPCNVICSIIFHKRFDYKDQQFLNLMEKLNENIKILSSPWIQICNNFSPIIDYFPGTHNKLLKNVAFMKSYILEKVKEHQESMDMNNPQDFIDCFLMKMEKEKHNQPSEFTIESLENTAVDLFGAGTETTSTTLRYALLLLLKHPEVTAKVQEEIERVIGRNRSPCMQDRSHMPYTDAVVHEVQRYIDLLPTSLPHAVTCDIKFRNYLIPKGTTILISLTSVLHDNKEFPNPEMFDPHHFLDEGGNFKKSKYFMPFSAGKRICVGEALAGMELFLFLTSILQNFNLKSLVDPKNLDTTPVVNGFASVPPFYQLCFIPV
Kind of assay: Cocktail assay for CYPs, diclofenac 4′-hydroxylation (CYP2C9), human liver microsomes. The conditions noted are these: 0.1 mg/mL human liver microsomes, 10 min at 37° C. Here is the method:
as §1, §2, §3, §4
A general note: Liver microsomes are vesicles of endoplasmic reticulum, rich in cytochrome P450 enzymes.

Assay [1] deals with T3, CYP3A4 (Homo sapiens, UniProt P08684). As to the kind of experiment: Cocktail assay for CYPs, midazolam 1′-hydroxylation (CYP3A4), human liver microsomes. The arrangement: 0.1 mg/mL protein human liver microsomes (BD Gentest); tissue BD Gentest; host or cells: human liver microsomes. To be noted: 2 μM midazolam, 0.1 mg/mL human liver microsomes, 10 min at 37° C.; read-out: CYP IC50 (nM) 3A4 (MDZ). Here is the method: as §1
(§5) This assay was performed in a standard 96-well plate design. IC50 values were calculated from the percent inhibition observed for each test compound at 6 concentrations (for example, 0.0032, 0.016, 0.08, 0.4, 2 and 10 μM). The incubation substrate mix contains 10 μM phenacetin (1A2), 5 μM diclofenac (2C9), 30 μM mephenytoin (2C19), 5 μM dextromethorphan (2D6) and 2 μM midazolam (3A4), 0.1 mg/mL protein human liver microsomes (BD Gentest), 1 mM NAPDH, 3.3 mM MgCl2 and 100 mM potassium phosphate buffer (pH 7.4). The production of the metabolite of each probe substrate was determined after incubation for 10 min at 37° C. Quantitation of the metabolite peak area ratio against an internal standard (tolbutamide) was determined by LC/MS/MS analysis following acetonitrile treatment of the incubations.
as §3, §4
Target sequence in this assay (P08684 whole entry): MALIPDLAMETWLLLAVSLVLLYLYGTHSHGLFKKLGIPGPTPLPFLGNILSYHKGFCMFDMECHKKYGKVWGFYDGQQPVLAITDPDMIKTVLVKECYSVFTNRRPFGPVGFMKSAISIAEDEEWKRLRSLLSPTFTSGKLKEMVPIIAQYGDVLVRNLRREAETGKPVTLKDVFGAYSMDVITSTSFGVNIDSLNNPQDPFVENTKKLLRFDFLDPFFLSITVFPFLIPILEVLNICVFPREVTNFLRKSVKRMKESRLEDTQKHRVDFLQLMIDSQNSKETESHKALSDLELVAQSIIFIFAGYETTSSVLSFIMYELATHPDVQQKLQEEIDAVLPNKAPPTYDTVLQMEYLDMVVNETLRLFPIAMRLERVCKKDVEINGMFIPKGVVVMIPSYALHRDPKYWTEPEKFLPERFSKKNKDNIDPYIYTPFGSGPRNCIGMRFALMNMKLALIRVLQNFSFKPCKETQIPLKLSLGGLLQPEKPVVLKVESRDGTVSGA

The next assay addresses T4, CYP2D6 (Homo sapiens, UniProt P10635).
T4 construct: 0.1 mg/mL protein human liver microsomes (BD Gentest); tissue BD Gentest; host or cells: human liver microsomes
As to the kind of experiment: Cocktail assay for CYPs, dextromethorphan O-demethylation (CYP2D6), human liver microsomes. To be noted: 5 μM dextromethorphan, 0.1 mg/mL human liver microsomes, 10 min at 37° C.; read-out: CYP IC50 (nM) 2D6. Here is the method: as §1, §5, §3, §4

For another assay, the target named is T5, CYP1A2 (Homo sapiens, UniProt P05177).
T5 construct: 0.1 mg/mL protein human liver microsomes (BD Gentest); tissue BD Gentest; host or cells: human liver microsomes
T5 sequence (P05177 1-516): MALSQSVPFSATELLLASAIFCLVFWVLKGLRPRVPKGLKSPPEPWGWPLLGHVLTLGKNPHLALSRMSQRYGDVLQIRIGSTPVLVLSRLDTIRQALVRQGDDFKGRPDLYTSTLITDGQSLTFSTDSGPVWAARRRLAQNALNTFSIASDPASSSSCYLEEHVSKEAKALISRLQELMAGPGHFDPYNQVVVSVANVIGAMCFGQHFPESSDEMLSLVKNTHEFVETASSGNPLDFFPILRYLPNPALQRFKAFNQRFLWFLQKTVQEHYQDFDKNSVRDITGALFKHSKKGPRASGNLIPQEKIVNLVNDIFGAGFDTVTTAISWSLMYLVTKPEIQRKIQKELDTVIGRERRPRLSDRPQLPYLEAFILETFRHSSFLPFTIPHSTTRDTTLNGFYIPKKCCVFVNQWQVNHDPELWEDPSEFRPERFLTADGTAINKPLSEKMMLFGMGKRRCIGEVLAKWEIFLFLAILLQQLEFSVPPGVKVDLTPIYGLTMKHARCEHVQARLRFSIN
Kind of assay: Cocktail assay for CYPs, phenacetin O-deethylation (CYP1A2), human liver microsomes. To be noted: 10 μM phenacetin, 0.1 mg/mL human liver microsomes, 10 min at 37° C.; read-out: CYP IC50 (nM) 1A2. Here is the method:
as §1, §5, §3, §4

Assay [2] deals with T3, CYP3A4. Kind of assay: IC50 vs CYP3A by inhibition of lopinavir metabolism in human liver microsomes. The arrangement: 0.01 mg/mL protein human liver microsomes (BD Gentest); tissue BD Gentest; host or cells: human liver microsomes. The conditions noted are these: 1.5 μM lopinavir, 0.01 mg/mL human liver microsomes, 8 min at 37° C.; read-out: CYP IC50 (nM) 3A4 (LPV). Here is the method:
Determination of IC50 vs CYP3A by Measurement of Inhibition of Lopinavir Metabolism
This assay was performed in a standard 96-well plate design. IC50 values were calculated from the percent inhibition observed for each test compound at 6 concentrations (for example, 0.098, 0.391, 1.56, 6.25, 25 and 100 nM). The incubation substrate mix contains 1.5 μM lopinavir, 0.01 mg/mL protein human liver microsomes (BD Gentest), 1 mM NAPDH, 3.3 mM MgCl2 and 100 mM potassium phosphate buffer (pH 7.4). The production of the sum of three hydroxylated metabolites (M2: 6-hydroxy lopinavir, M3: 4-hydroxy lopinavir, M4: 4-hydroxy lopinavir (epimer of M3), Kumar et al., 1999) was determined after incubation for 8 min at 37° C. Quantitation of the metabolite peak area ratio against an internal standard (tolbutamide) was determined by LC/MS/MS analysis following acetonitrile treatment of the incubations.
Samples were analyzed in the MRM mode with a SCIEX API-4000 mass spectrometer (Applied Biosystems, Foster City, Calif.), with a Shimadzu LC-20 AD pump (Shimadzu corporation, Kyoto, JP) and a CTC PAL autosampler (Agilent Technologies, Switzerland). A Phenomenex, Luna, 5 μm, 100 A, 2.00×30 mm HPLC column was used for the separation. The mobile phases were: (A) 0.1% formic acid in water and (B) 0.1% formic acid in acetonitrile. The binary gradient was as follows.
The peak area ratio of the analyte to the internal standard was used to quantify the metabolite. The values of peak area ratios in the presence of test compound were compared to those of maximum or minimum controls and were expressed as % inhibition by interpolating between the maximum and minimum peak area ratios. Incubations with no inhibitor were defined as the maxima and with 5 μM ketoconazole were defined as the minima.
The following equation was used to calculate the % inhibition: [1−[(X−Low control)/(High control−Low control)]]*100
For the IC50 calculation, SigmaPlot was used to plot the mean % inhibition versus the test compound concentrations and for non-linear regression analysis of the data. Depending on the range of data points defining the inhibition curve, the data may have been fit to the 4-parameter logistic equation.
Target sequence in this assay (P08684 2-503): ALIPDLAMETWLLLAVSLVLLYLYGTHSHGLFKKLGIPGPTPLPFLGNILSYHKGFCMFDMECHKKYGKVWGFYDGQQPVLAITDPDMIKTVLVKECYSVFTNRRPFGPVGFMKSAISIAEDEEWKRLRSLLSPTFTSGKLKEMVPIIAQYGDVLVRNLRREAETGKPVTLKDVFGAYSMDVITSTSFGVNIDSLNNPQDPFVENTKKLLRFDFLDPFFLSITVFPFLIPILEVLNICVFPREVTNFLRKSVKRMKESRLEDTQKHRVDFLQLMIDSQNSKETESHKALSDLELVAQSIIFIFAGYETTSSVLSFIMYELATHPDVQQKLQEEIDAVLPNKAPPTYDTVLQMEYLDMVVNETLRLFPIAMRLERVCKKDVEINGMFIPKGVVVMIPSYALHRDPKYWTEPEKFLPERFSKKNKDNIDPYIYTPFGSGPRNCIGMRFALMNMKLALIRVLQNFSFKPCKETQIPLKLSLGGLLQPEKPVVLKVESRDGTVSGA

[3] abbreviates: 30 μM mephenytoin, read-out: CYP IC50 (nM) 2C19.
[4] abbreviates: 5 μM diclofenac, read-out: CYP IC50 (nM) 2C9.

T4 sequence (P10635 whole entry): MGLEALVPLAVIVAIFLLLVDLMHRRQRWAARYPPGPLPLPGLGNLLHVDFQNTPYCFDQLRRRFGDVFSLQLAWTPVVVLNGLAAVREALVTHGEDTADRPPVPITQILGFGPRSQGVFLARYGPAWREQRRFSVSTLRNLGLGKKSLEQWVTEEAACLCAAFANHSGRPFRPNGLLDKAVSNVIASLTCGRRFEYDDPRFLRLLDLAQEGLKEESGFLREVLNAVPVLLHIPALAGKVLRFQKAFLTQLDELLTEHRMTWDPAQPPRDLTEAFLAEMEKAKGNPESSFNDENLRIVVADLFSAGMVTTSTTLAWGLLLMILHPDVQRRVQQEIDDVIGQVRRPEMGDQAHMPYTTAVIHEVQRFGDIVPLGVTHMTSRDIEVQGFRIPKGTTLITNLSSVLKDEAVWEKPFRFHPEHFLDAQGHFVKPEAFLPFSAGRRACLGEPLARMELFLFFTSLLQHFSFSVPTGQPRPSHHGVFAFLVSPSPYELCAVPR

As for `CS(=O)(=O)N1CCCC1c1cccc(-c2cncn2CCc2ccc(F)cc2)c1` (stereo not drawn) [Compound 51, 1-(4-fluorophenethyl)-5-(3-(1-(methylsulfonyl)pyrrolidin-2-yl)phenyl)-1H-imidazole], the IC50 at CYP2C19 (setting [3]) is 2110 nM; at CYP2C9 (setting [4]), 4640 nM; on CYP3A4 [1], 22.6 nM; on CYP2D6, 6780 nM; on CYP1A2, 1160 nM; on CYP3A4 [2], 34.7 nM.

In the case of `O=S(=O)(c1ccc(N2CCC(O)CC2)nc1)N1CCCC1c1ccccc1-c1cncn1CCc1ccc(F)cc1` (single isomer, unassigned) [Compound 32, (R or S)-1-(5-((2-(2-(1-(4-fluorophenethyl)-1H-imidazol-5-yl)phenyl)pyrrolidin-1-yl)sulfonyl)pyridin-2-yl) piperidin-4-ol], the IC50 at CYP2C19 (setting [3]) is 3410 nM; on CYP2C9 (setting [4]), 3720 nM; on CYP3A4 [1], 4.2 nM; at CYP2D6 it was 5820 nM; on CYP1A2 it was more than 10000 nM; on CYP3A4 [2], 0.7 nM.

With `CC(C)(C)OC(=O)N1CCCC1c1ccccc1-c1cncn1CCc1ccc(F)cc1` (stereo not drawn) [Compound 38, tert-butyl 2-(2-(1-(4-fluorophenethyl)-1H-imidazol-5-yl)phenyl) pyrrolidine-1-carboxylate], the IC50 at CYP2C19 (setting [3]) is 2300 nM; on CYP2C9 (setting [4]) it was 1770 nM; at CYP3A4 [1], 6.7 nM; at CYP2D6, 6860 nM; on CYP1A2, 3350 nM; at CYP3A4 [2], 5.5 nM.

Turning to `C[C@@H](NS(=O)(=O)c1cnc(N2CCN3C[C@H](O)C[C@H]3C2)s1)c1ccccc1-c1cncn1CCc1ccc(F)cc1` [Compound 6a, N-((R)-1-(2-(1-(4-fluorophenethyl)-1H-imidazol-5-yl)phenyl)ethyl)-2-((7R,8aS)-7-hydroxy-hexahydro-pyrrolo[1,2-a]pyrazin-2(1H)-yl)thiazole-5-sulfonamide], the IC50 is 8700 nM against CYP2C19 (CYP IC50 (nM) 2C19, 30 μM mephenytoin); 4550 nM against CYP2C9 (CYP IC50 (nM) 2C9, 5 μM diclofenac); 7.5 nM at CYP3A4 [1]; 2540 nM on CYP2D6; more than 10000 nM at CYP1A2; 8.6 nM on CYP3A4 [2].

Turning to `CC(C)OC(=O)N1CCCC1c1ccccc1-c1cncn1CCc1ccc(F)cc1` (single isomer, unassigned) [Compound 39a, (R or S)-isopropyl 2-(2-(1-(4-fluorophenethyl)-1H-imidazol-5-yl)phenyl) pyrrolidine-1-carboxylate], the IC50 on CYP2C19 (setting [3]) came to 2730 nM; on CYP2C9 (setting [4]) it was 2200 nM; on CYP3A4 [1], 7.6 nM; at CYP2D6, 9040 nM; at CYP1A2 it was 3840 nM; on CYP3A4 [2], 4.3 nM.

With `COCCn1cncc1-c1ccccc1C1CCCN1S(=O)(=O)c1cnc(NC(C)=O)s1` (stereo not drawn) [Compound 20, N-(5-((2-(2-(1-(2-methoxyethyl)-1H-imidazol-5-yl)phenyl)pyrrolidin-1-yl)sulfonyl)thiazol-2-yl)acetamide], the IC50 on CYP2C19 (setting [3]) was more than 10000 nM; on CYP2C9 (setting [4]), more than 10000 nM; on CYP3A4 [1] it was 38.5 nM; at CYP2D6, more than 10000 nM; at CYP1A2, more than 10000 nM; at CYP3A4 [2], not below 100 nM.

For `CC(=O)Nc1ncc(S(=O)(=O)N2CCCC2c2ccccc2-c2cncn2C2CC2)s1` (stereo not drawn) [Compound 31, N-(5-((2-(2-(1-cyclopropyl-1H-imidazol-5-yl)phenyl)pyrrolidin-1-yl)sulfonyl)thiazol-2-yl) acetamide], the IC50 was more than 10000 nM at CYP2C19 (setting [3]); more than 10000 nM at CYP2C9 (setting [4]); 25.4 nM on CYP3A4 [1]; more than 10000 nM on CYP2D6; more than 10000 nM on CYP1A2; 25.4 nM at CYP3A4 [2].

One may read the IC50 as the concentration at which inhibition is half-maximal.
